According to US5278184A, “Synthetic derivatives of pyrrole and pyrrolidine suitable for the therapy of infections caused by rhinoviruses” (Repla Chemical Ltd., priority 1991, dated 1994):

test system: rhinovirus serotype 30; experiment: Protection of HeLa cells from rhinovirus-induced cytopathogenicity (MTT), serotype 30; conditions: Enterovirus, 72 h, read-out: MIC, serotype 30

First: Cc1ccc(C(=O)CCCCOc2ccc(C3=NCCO3)cc2)s1 [Compound 522]
Second: CCOC(=O)c1ccc(OCCCCC(=O)c2ccc(C)s2)cc1 [Compound 514]
The EC50 of the first is 10-fold higher: 1400 nM for the first, 140 nM for the second.

`CCOC(=O)c1ccc(OCCCCC(=O)c2cc(C=O)n(C)c2)cc1` [Compound 393, 4-[5-[4-(ethoxycarbonyl)phenoxy]pentanoyl]-1-methyl-1H-pyrrole-, -2-carboxaldeide] gave an EC50 of 1100 nM.

test system: rhinovirus serotype 15; experiment: Protection of HeLa cells from rhinovirus-induced cytopathogenicity (MTT), serotype 15; conditions: Enterovirus, 72 h, read-out: MIC, serotype 15

Compared with `Cc1ccc(C(=O)CCCCOc2ccc(C3=NCCO3)cc2)s1` [Compound 522], `CCOC(=O)c1ccc(OCCCCC(=O)c2ccc(C)s2)cc1` [Compound 514] is 3-fold higher in EC50: 300 nM for the first, 900 nM for the second. The first is the more potent here.

`CCOC(=O)c1ccc(OCCCCC(=O)c2cc(C=O)n(C)c2)cc1` [Compound 393, 4-[5-[4-(ethoxycarbonyl)phenoxy]pentanoyl]-1-methyl-1H-pyrrole-, -2-carboxaldeide] showed an EC50 of 2200 nM.

test system: rhinovirus serotype 2; experiment: Protection of HeLa cells from rhinovirus-induced cytopathogenicity (MTT), serotype 2; conditions: Enterovirus, 72 h, read-out: MIC, serotype 2

Compared with `Cc1ccc(C(=O)CCCCOc2ccc(C3=NCCO3)cc2)s1` [Compound 522], `CCOC(=O)c1ccc(OCCCCC(=O)c2ccc(C)s2)cc1` [Compound 514] is 2.2-fold lower in EC50: 1100 nM for the first, 500 nM for the second.

Molecule `CCOC(=O)c1ccc(OCCCCC(=O)c2cc(C=O)n(C)c2)cc1` [Compound 393, 4-[5-[4-(ethoxycarbonyl)phenoxy]pentanoyl]-1-methyl-1H-pyrrole-, -2-carboxaldeide] has an EC50 of 500 nM.

test system: rhinovirus serotype 14; experiment: Protection of HeLa cells from rhinovirus-induced cytopathogenicity (MTT), serotype 14; conditions: Enterovirus, 72 h, read-out: MIC, serotype 14

First: Cc1ccc(C(=O)CCCCOc2ccc(C3=NCCO3)cc2)s1 [Compound 522]
Second: CCOC(=O)c1ccc(OCCCCC(=O)c2ccc(C)s2)cc1 [Compound 514]
The EC50 of the first is 5.7-fold lower: 300 nM for the first, 1700 nM for the second.

Molecule `CCOC(=O)c1ccc(OCCCCC(=O)c2cc(C=O)n(C)c2)cc1` [Compound 393, 4-[5-[4-(ethoxycarbonyl)phenoxy]pentanoyl]-1-methyl-1H-pyrrole-, -2-carboxaldeide] has an EC50 of 2000 nM.

test system: rhinovirus serotype 86; experiment: Protection of HeLa cells from rhinovirus-induced cytopathogenicity (MTT), serotype 86; conditions: Enterovirus, 72 h, read-out: MIC, serotype 86

`Cc1ccc(C(=O)CCCCOc2ccc(C3=NCCO3)cc2)s1` [Compound 522] and `CCOC(=O)c1ccc(OCCCCC(=O)c2ccc(C)s2)cc1` [Compound 514] are the same in EC50: 140 nM for the first, 140 nM for the second.

`CCOC(=O)c1ccc(OCCCCC(=O)c2cc(C=O)n(C)c2)cc1` [Compound 393, 4-[5-[4-(ethoxycarbonyl)phenoxy]pentanoyl]-1-methyl-1H-pyrrole-, -2-carboxaldeide] showed an EC50 of 140 nM.

test system: HRV-14; experiment: Viral plaque reduction, HRV-14 on HeLa cells; type: cell-based, human rhinovirus; conditions: Rhinovirus B; Table 2; 50% reduction of HRV14 plaques, HeLa cells; read-out: MIC, HRV-14

`Cc1ccc(C(=O)CCCCOc2ccc(C3=NCCO3)cc2)s1` [Compound 522] and `CCOC(=O)c1ccc(OCCCCC(=O)c2ccc(C)s2)cc1` [Compound 514] are within 1.5-fold of each other in EC50: 2900 nM for the first, 3400 nM for the second.

Molecule `CCOC(=O)c1ccc(OCCCCC(=O)c2cc(C=O)n(C)c2)cc1` [Compound 393, 4-[5-[4-(ethoxycarbonyl)phenoxy]pentanoyl]-1-methyl-1H-pyrrole-, -2-carboxaldeide] has an EC50 of 1400 nM.

same assay, conditions: Table 2; HeLa MTL / HRV-14 MIC

In the case of `Cc1ccc(C(=O)CCCCOc2ccc(C3=NCCO3)cc2)s1` [Compound 522], the “S.I. (Selectivity Index): ratio MTL/MIC” value is reported as greater than 100.
In the case of `CCOC(=O)c1ccc(OCCCCC(=O)c2ccc(C)s2)cc1` [Compound 514], the “S.I. (Selectivity Index): ratio MTL/MIC” value is reported as greater than 170.

In the case of `CCOC(=O)c1ccc(OCCCCC(=O)c2cc(C=O)n(C)c2)cc1` [Compound 393, 4-[5-[4-(ethoxycarbonyl)phenoxy]pentanoyl]-1-methyl-1H-pyrrole-, -2-carboxaldeide], the “S.I. (Selectivity Index): ratio MTL/MIC” value is reported as 36.

test system: rhinovirus serotype 22; experiment: Protection of HeLa cells from rhinovirus-induced cytopathogenicity (MTT), serotype 22; conditions: Enterovirus, 72 h, read-out: MIC, serotype 22

Going from `Cc1ccc(C(=O)CCCCOc2ccc(C3=NCCO3)cc2)s1` [Compound 522] to `CCOC(=O)c1ccc(OCCCCC(=O)c2ccc(C)s2)cc1` [Compound 514], the EC50 falls from 11600 nM to 1400 nM (8.3-fold). The second is the more potent here.

For `CCOC(=O)c1ccc(OCCCCC(=O)c2cc(C=O)n(C)c2)cc1` [Compound 393, 4-[5-[4-(ethoxycarbonyl)phenoxy]pentanoyl]-1-methyl-1H-pyrrole-, -2-carboxaldeide], the EC50 was 1100 nM.

test system: rhinovirus serotype 89; experiment: Protection of HeLa cells from rhinovirus-induced cytopathogenicity (MTT), serotype 89; conditions: Enterovirus, 72 h, read-out: MIC, serotype 89

`Cc1ccc(C(=O)CCCCOc2ccc(C3=NCCO3)cc2)s1` [Compound 522] and `CCOC(=O)c1ccc(OCCCCC(=O)c2ccc(C)s2)cc1` [Compound 514] are the same in EC50: 300 nM for the first, 300 nM for the second.

Molecule `CCOC(=O)c1ccc(OCCCCC(=O)c2cc(C=O)n(C)c2)cc1` [Compound 393, 4-[5-[4-(ethoxycarbonyl)phenoxy]pentanoyl]-1-methyl-1H-pyrrole-, -2-carboxaldeide] has an EC50 of 200 nM.

test system: rhinovirus serotype 21; experiment: Protection of HeLa cells from rhinovirus-induced cytopathogenicity (MTT), serotype 21; conditions: Enterovirus, 72 h, read-out: MIC, serotype 21

Compared with `Cc1ccc(C(=O)CCCCOc2ccc(C3=NCCO3)cc2)s1` [Compound 522], `CCOC(=O)c1ccc(OCCCCC(=O)c2ccc(C)s2)cc1` [Compound 514] is 17-fold lower in EC50: 1700 nM for the first, 100 nM for the second.

Molecule `CCOC(=O)c1ccc(OCCCCC(=O)c2cc(C=O)n(C)c2)cc1` [Compound 393, 4-[5-[4-(ethoxycarbonyl)phenoxy]pentanoyl]-1-methyl-1H-pyrrole-, -2-carboxaldeide] has an EC50 of 2200 nM.

test system: rhinovirus serotype 50; experiment: Protection of HeLa cells from rhinovirus-induced cytopathogenicity (MTT), serotype 50; conditions: Enterovirus, 72 h, read-out: MIC, serotype 50

First: Cc1ccc(C(=O)CCCCOc2ccc(C3=NCCO3)cc2)s1 [Compound 522]
Second: CCOC(=O)c1ccc(OCCCCC(=O)c2ccc(C)s2)cc1 [Compound 514]
The EC50 of the first is 2.8-fold higher: 1100 nM for the first, 400 nM for the second.

Molecule `CCOC(=O)c1ccc(OCCCCC(=O)c2cc(C=O)n(C)c2)cc1` [Compound 393, 4-[5-[4-(ethoxycarbonyl)phenoxy]pentanoyl]-1-methyl-1H-pyrrole-, -2-carboxaldeide] has an EC50 of 800 nM.

test system: not listed separately; experiment: in vitro; conditions: human, hela cells

`Cc1ccc(C(=O)CCCCOc2ccc(C3=NCCO3)cc2)s1` [Compound 522] and `CCOC(=O)c1ccc(OCCCCC(=O)c2ccc(C)s2)cc1` [Compound 514] cannot be ordered by MNTC: greater than 291 µM for the first, greater than 578 µM for the second.

`CCOC(=O)c1ccc(OCCCCC(=O)c2cc(C=O)n(C)c2)cc1` [Compound 393, 4-[5-[4-(ethoxycarbonyl)phenoxy]pentanoyl]-1-methyl-1H-pyrrole-, -2-carboxaldeide] showed an MNTC of 50 µM.

test system: different rhinoviruses serotypes; experiment: Protection of HeLa cells from rhinovirus-induced cytopathogenicity (MTT), all serotypes of Table 3; conditions: Enterovirus, HeLa, 72 h, read-out: MIC, summary over the serotypes

First: Cc1ccc(C(=O)CCCCOc2ccc(C3=NCCO3)cc2)s1 [Compound 522]
Second: CCOC(=O)c1ccc(OCCCCC(=O)c2ccc(C)s2)cc1 [Compound 514]
The EC50 of the first is 3.2-fold higher: 2000 nM for the first, 630 nM for the second. The second is the more potent here.

Work on `CCOC(=O)c1ccc(OCCCCC(=O)c2cc(C=O)n(C)c2)cc1` [Compound 393, 4-[5-[4-(ethoxycarbonyl)phenoxy]pentanoyl]-1-methyl-1H-pyrrole-, -2-carboxaldeide] yielded an EC50 of 1400 nM.

same assay, conditions: Table 3

In the case of `CCOC(=O)c1ccc(OCCCCC(=O)c2ccc(C)s2)cc1` [Compound 514], the “effectiveness and selectivity as rhinoviruses inhibiting agent” value is reported as “the most effective and selective”.

same assay, conditions: Table 3; nine serotypes, HeLa cells

With `Cc1ccc(C(=O)CCCCOc2ccc(C3=NCCO3)cc2)s1` [Compound 522] the S.I. was greater than 145.
For `CCOC(=O)c1ccc(OCCCCC(=O)c2ccc(C)s2)cc1` [Compound 514], the S.I. was greater than 917.

`CCOC(=O)c1ccc(OCCCCC(=O)c2cc(C=O)n(C)c2)cc1` [Compound 393, 4-[5-[4-(ethoxycarbonyl)phenoxy]pentanoyl]-1-methyl-1H-pyrrole-, -2-carboxaldeide] showed a S.I. of 36.
